Results published in patent US20210155670A1, “SYSTEMS AND METHODS FOR THE PREPARATION OF PEPTIDE-MHC-I COMPLEXES WITH NATIVE GLYCAN MODIFICATIONS” (The Regents of the University of California, priority 2019, published 2021).
“Also recorded” adds a separate entry of the source. Where two headings read alike, the source gives them in different places. Ends that are not written are not given here.

Columns and labels:
[1] = biological target: T1, HLA-A*68:02/TAPBPR complex (Homo sapiens, UniProt P04439+P61769, A269V/D140Y/D185E/E176V/E277Q/E87N/F33Y/G231S/I121R/I166T/I218V/L180W/N151K/P208A/P217A/Q86R/R138H/R169H/R297K/S129P/V36M); assay: Native gel shift assay of peptide binding to HLA-A*68:02/TAPBPR complex; settings: Example 2, 10-molar excess of peptide
T1 construct: human beta-2 microglobulin signal peptide (N); TEV protease site (C, cleaved yes); FOS leucine zipper (C, cleaved yes); made in house; host or cells: CHO cells
Excerpt: CHO-derived HLA-A*02:01/TAPBPR complexes can be loaded with high-affinity TAX9 and MART-1 peptides (FIG. 11D). […] The two alleles have considerable sequence homology in the peptide-binding groove formed by the α1/α2 domains, resulting in a shared preference for a Val, Leu, Ala or Ile at the peptide anchor position 9, but marked variation at anchor position 2 where HLA-A*02:01 has a preference for Leu while HLA-A*68:02 prefers Thr (FIG. 11A). […] Structure-based modeling (Nerli and Sgourakis, bioRxiv, 2020.03.23.004176 (2020)) confirmed A-pocket hydrogen bonding interactions between peptide anchor position L2 with the K66 sidechain, Y7 with Y99 from HLA-A*02:01, and anchor position T2 with N66 and N63 from HLA-A*68:02 (FIG. 11B). According to the electrophoretic mobility shift assay, all predicted high-affinity peptides bound to HLA-A*02:01 and HLA-A*68:02 resulting in discrete pMHC-I protein bands. (FIG. 11C).
Gels were imaged using an Innotech FluoChem2 system (Genetic Technologies Grover, Mo.).

[2] = biological target: T2, HLA-A*02:01/TAPBPR complex (Homo sapiens, UniProt P04439+P61769, D140Y/D185E/D98H/E176V/E277Q/G131W/G231S/I119V/I121R/I166T/I218V/N151K/N90K/P208A/P217A/Q86G/Q94H/R138H/R169H); assay: Native gel shift assay of peptide binding to HLA-A*02:01/TAPBPR complex
T2 construct: human beta-2 microglobulin signal peptide (N); TEV protease site (C, cleaved yes); FOS leucine zipper (C, cleaved yes); made in house; host or cells: CHO cells (CHO-K1s / CHO-K1s C1s-/-), co-transfected, secreted

[3] = biological target: T3, HLA-A*24:02/TAPBPR complex (Homo sapiens, UniProt P04439+P61769, D101N/D140Y/E190D/F33S/G103R/G107R/I119L/I121M/L105A/N151K/N90K/Q86E/Q94H/R106L/R138H/R89G/T104I/V100E/W191G/Y123F); assay: Native gel electrophoresis of HLA-A*24:02/TAPBPR complex with peptides; type: binding; settings: FIG. 14c
T3 construct: human beta-2 microglobulin signal peptide (N); TEV protease site (C, cleaved yes); FOS leucine zipper (C, cleaved yes); made in house; host or cells: CHO cells

[4] = Example 2, 10-fold molar excess of peptide, native gel

Sequence: GLLGIGILTV [GM1]
- pMHC-I band formation in electrophoretic mobility shift assay [1]: significant binding

Sequence: LLFGVPVYV [TAX9]
- native gel band shift of MHC-I (pMHC formation) [2]: resulted in a band shift
- pMHC-I band formation in electrophoretic mobility shift assay [2, 4]: formation of discrete bands corresponding to properly conformed pMHC species; also recorded: can be loaded; also recorded: pMHC-I formation

Sequence: RGPGRAFVFI [Peptide P18_I10]
- native gel band shift of MHC-I (pMHC formation) [2]: did not
- pMHC-I band formation in electrophoretic mobility shift assay [2, 4]: non-binding

Sequence: RYPLTFGWCF [Nef138-10]
- complex dissociation in the presence of peptide, native gel [3]: complex dissociation

Sequence: TLACFVLAAV
- pMHC-I band formation in electrophoretic mobility shift assay [2]: little or no binding

Sequence: VYGFVRACL [PHOX2B]
- complex dissociation in the presence of peptide, native gel [3]: complex dissociation

Sequence: WLMWLIINL
- pMHC-I band formation in electrophoretic mobility shift assay [2, 4]: little or no binding

Sequence: YPNVNIHNF [NIH p29, non-specific (NS) negative control peptide]
- native gel band shift of MHC-I (pMHC formation) ([2]; Example 1, SEC purified unzippered complex, 5:1 molar ratio, 1 h room temperature): did not
- pMHC-I band formation in electrophoretic mobility shift assay [2, 4]: non-binding
